Measured values published in patent publication US9156811B2 (priority 2008, dated 2015).

What follows are compounds tested on Trypanosome (T. brucei brucei) (assay: In-vitro antitrypanosomal efficacy assay (cell growth, resazurin)). Settings: T. brucei cell growth.
Type: cell-based
Procedure: To column 12, 200 μl media was added to provide a no cells control. Plates were then incubated at 37° C. in an atmosphere of 5% CO2 for 69 hours, before the addition of 20 μl of 500 μM rezasurin solution, and a further incubation period of 4 hours. […] Concentration effect curves were fitted using non-linear regression using XLFit 4.2 and EC50 values determined.

| Compound | ED50 (μM) T. brucei |
| --- | --- |
| Cc1cc([S+](=O)([O-])Nc2c(C)nn(C)c2C)c(Cl)cc1Cl [DDD60006] | >1 µM |
| Cc1nn(C)c(C)c1N[S+](=O)([O-])c1cc(C(F)(F)F)cc(C(F)(F)F)c1 [DDD61393] | >1 µM |
| CCc1ccc([S+](=O)([O-])Nc2c(C)nn(C)c2C)cc1 [DDD71231] | >1 µM |
| Cc1cc([S+](=O)([O-])Nc2c(C)nn(C)c2C)ccc1Br [DDD71235] | >1 µM |
| Cc1nn(C)c(C)c1N[S+](=O)([O-])c1c(Cl)cccc1Cl [DDD71239] | 23.2 µM |
| COc1cc(NC(C)=O)ccc1[S+](=O)([O-])Nc1c(C)nn(C)c1C [DDD71590] | >1 µM |
| Cc1nn(C)c(C)c1N[S+](=O)([O-])c1ccc(CNC(=O)c2ccc(Cl)cc2)s1 [DDD73224] | >1 µM |
| Cc1nn(C)c(C)c1N[S+](=O)([O-])c1ccc(C#N)cc1Cl [DDD73228] | >1 µM |
| Cc1nn(C)c(C)c1N[S+](=O)([O-])c1cc(Cl)cc(Cl)c1O [DDD73229] | >1 µM |
| Cc1nn(C)c(C)c1N[S+](=O)([O-])c1c(Cl)cc(Br)cc1Cl [DDD73234, 4-Bromo-2,6-dichloro-N-(1,3,5-trimethyl-1H-pyrazol-4-yl)-benzenesulfonamide] | 14.3 µM |
| Cc1nn(C)c(C)c1N[S+](=O)([O-])c1ccc(Cl)nc1 [DDD73235, 6-Chloro-pyridine-3-sulfonic acid (1,3,5-trimethyl-1H-pyrazol-4-yl)-amide] | >1 µM |
| Cc1nn(C)c(C)c1N[S+](=O)([O-])c1c(Cl)cc(-c2ccccc2OCC(C)C)cc1Cl [DDD73273] | >1 µM |
| COCc1ccccc1-c1cc(Cl)c([S+](=O)([O-])Nc2c(C)nn(C)c2C)c(Cl)c1 [DDD73274] | >1 µM |
| Cc1nn(C)c(C)c1N[S+](=O)([O-])c1ccc(NCCc2ccccc2)nc1 [DDD73319] | 8.4 µM |
| Cc1nn(C)c(C)c1N[S+](=O)([O-])c1c(Cl)cc(-c2ccc(OC(F)(F)F)cc2)cc1Cl [DDD73323] | >1 µM |
| Cc1nn(C)c(C)c1N(Cc1ccccc1)[S+](=O)([O-])c1c(Cl)cc(Br)cc1Cl [DDD85601] | >1 µM |
| Cc1nn(C)c(C)c1N[S+](=O)([O-])c1ccc(NCCN2CCN(C)CC2)nc1 [DDD85602, 6-[2-(4-Methyl-piperazin-1-yl)-ethylamino]-pyridine-3-sulfonic acid (1,3,5-trimethyl-1 H-pyrazol-4-yl)-amide] | 0.63 µM |
| C#CCN(c1c(C)nn(C)c1C)[S+](=O)([O-])c1c(Cl)cc(Br)cc1Cl [DDD85630] | >1 µM |
| CC#CCN(c1c(C)nn(C)c1C)[S+](=O)([O-])c1c(Cl)cc(Br)cc1Cl [DDD85631] | >1 µM |
| Cc1nn(C)c(C)c1N[S+](=O)([O-])c1c(Cl)cc(-c2ccc(CN(C)Cc3ccccc3)cc2)cc1Cl [DDD85632] | >1 µM |
| Cc1nn(C)c(C)c1N[S+](=O)([O-])c1ccc(NCCN2CCCCC2)nc1 [DDD85635] | 48.1 µM |
| CCN(c1c(C)nn(C)c1C)[S+](=O)([O-])c1c(Cl)cc(Br)cc1Cl [DDD85637] | 3.2 µM |
| C=CCN(c1c(C)nn(C)c1C)[S+](=O)([O-])c1c(Cl)cc(Br)cc1Cl [DDD85638] | >1 µM |
| CCN(CC)Cc1ccc(-c2cc(Cl)c([S+](=O)([O-])Nc3c(C)nn(C)c3C)c(Cl)c2)cc1 [DDD85639] | >1 µM |
| Cc1nn(C)c(C)c1N(CC1OCCO1)[S+](=O)([O-])c1c(Cl)cc(Br)cc1Cl [DDD85641] | 16.3 µM |
| Cc1ccc(SCc2ccc([S+](=O)([O-])Nc3c(C)nn(C)c3C)cc2)cc1 [DDD85642] | >1 µM |

| Compound | ED50 (μM) T. brucei |
| --- | --- |
| Cc1nn(C)c(C)c1N[S+](=O)([O-])c1c(Cl)cc(-c2ccc(CN3CCN(C)CC3)cc2)cc1Cl [DDD85644] | 2.1 µM |
| Cc1nn(C)c(C)c1N[S+](=O)([O-])c1c(Cl)cc(-c2ccc(N3CCNCC3)nc2)cc1Cl [DDD85645] | 0.23 µM |
| Cc1nn(C)c(C)c1N[S+](=O)([O-])c1ccc(Br)cc1Cl [DDD86208, 4-Bromo-2-chloro-N-(1,3,5-trimethyl-1H-pyrazol-4-yl)-benzenesulfonamide] | >1 µM |
| Cc1nn(C)c(C)c1N[S+](=O)([O-])c1c(Cl)cc(-c2ccnc(Cl)c2)cc1Cl [DDD86209, 2,6-Dichloro-4-(2-chloro-pyridin-4-yl)-N-(1,3,5-trimethyl-1H-pyrazol-4-yl)-benzenesulfonamide] | >1 µM |
| Cc1nn(C)c(C)c1N[S+](=O)([O-])c1c(Cl)cc(-c2ccnc(N3CCN(C)CC3)c2)cc1Cl [DDD86211, 2,6-Dichloro-4-[2-(4-methyl-piperazin-1-yl)-pyridin-4-yl]-N-(1,3,5-trimethyl-1H-pyrazol-4-yl)-benzenesulfonamide] | 0.19 µM |
| Cc1nn(C)c(C)c1N[S+](=O)([O-])c1ccc(-c2ccnc(N3CCNCC3)c2)cc1 [DDD86213, 4-(2-piperazin-1-yl-pyridin-4-yl)-N-(1,3,6-trimethyl-1H-pyrazol-4-yl)-benzenesulfonamide] | 0.003 µM |
| Cc1nn(C)c(C)c1N[S+](=O)([O-])c1ccc(NC2CCN(Cc3ccccc3)C2)nc1 (stereo not drawn) [DDD86294] | >1 µM |
| Cc1nn(C)c(C)c1N[S+](=O)([O-])c1ccc(NC2CCNC2)nc1 (stereo not drawn) [DDD86296] | >1 µM |
| Cc1nn(C)c(C)c1N[S+](=O)([O-])c1ccc(NCCCN2CCC(N(C)C)C2)nc1 (stereo not drawn) [DDD86300] | 1.73 µM |
| Cc1nn(C)c(C)c1N[S+](=O)([O-])c1ccc(NCCN2CCN(c3ccccc3)CC2)nc1 [DDD86301] | >1 µM |
| Cc1nn(C)c(C)c1N[S+](=O)([O-])c1ccc(NCCN2CCNCC2)nc1 [DDD86305] | >1 µM |
| Cc1nn(C)c(C)c1N[S+](=O)([O-])c1ccc(N2CCC(N(C)C)C2)nc1 (stereo not drawn) [DDD86306] | >1 µM |
| Cc1nn(C)c(C)c1N[S+](=O)([O-])c1ccc(N(C)CCO)nc1 [DDD86307] | >1 µM |
| Cc1nn(C)c(C)c1N[S+](=O)([O-])c1c(Cl)cc(-c2ccnc(NCCN(C)C)c2)cc1Cl [DDD86309, 2,6-Dichloro-4-[2-(2-dimethylamino-ethylamino)-pyridin-4-yl]-N-(1,3,5-trimethyl-1H-pyrazol-4-yl)-benzenesulfonamide] | >1 µM |
| CCN(CC)Cc1cccc(-c2ccc([S+](=O)([O-])Nc3c(C)nn(C)c3C)cc2)c1 [DDD86312, 3′-Diethylaminomethyl-biphenyl-4-sulfonic acid (1,3,5-trimethyl-1H-pyrazol-4-yl)-amide] | 0.07 µM |
| Cc1nn(C)c(C)c1N[S+](=O)([O-])c1ccc(-c2cccc(CN3CCOCC3)c2)cc1 [DDD86314, 3′-Morpholin-4-ylmethyl-biphenyl-4-sulfonic acid (1,3,5-trimethyl-1H-pyrazol-4-yl)-amide] | >1 µM |
| Cc1nn(C)c(C)c1N[S+](=O)([O-])c1ccc(-c2cccc(CN3CCN(C(=O)OC(C)(C)C)CC3)c2)cc1 [DDD86315, 4-[4′-(1,3,5-Trimethyl-1H-pyrazol-4-ylsulfamoyl)-biphenyl-3-ylmethyl]-piperazine-1-carboxylic acid tert-butyl ester] | >1 µM |
| Cc1nn(C)c(C)c1N[S+](=O)([O-])c1ccc(-c2cccc(CNCCN(C)C)c2)cc1 [DDD86316, 3′-[(2-Dimethylamino-ethylamino)-methyl]biphenyl-4-sulfonic acid (1,3,5-trimethyl-1H-pyrazol-4-yl)-amide] | 5.0 µM |
| Cc1nn(C)c(C)c1N[S+](=O)([O-])c1ccc(-c2cccc(CN3CCNCC3)c2)cc1 [DDD86317, 3′-piperazin-1-ylmethyl-biphenyl-4-sulfonic acid (1,3,5-trimethyl-1H-pyrazol-4-yl)-amide] | 0.02 µM |
| Cc1nn(C)c(C)c1N[S+](=O)([O-])c1ccc(-c2cccc(CN3CCCC3)c2)cc1 [DDD86318, 3′-Pyrrolidin-1-ylmethyl-biphenyl-4-sulfonic acid (1,3,5-trimethyl-1H-pyrazol-4-yl)-amide] | 0.21 µM |
| Cc1nn(C)c(CC(C)C)c1N[S+](=O)([O-])c1c(Cl)cc(-c2ccnc(N3CCNCC3)c2)cc1Cl [DDD86467, 2,6-Dichloro-N-(5-isobutyl-1,3-dimethyl-1H-pyrazol-4-yl)-4-(2-piperazin-1-yl-pyridin-4-yl)-benzenesulfonamide] | 0.003 µM |
| Cc1noc(C)c1N[S+](=O)([O-])c1c(Cl)cc(-c2ccnc(N3CCNCC3)c2)cc1Cl [DDD86468, 2,6-Dichloro-N-(3,5-dimethyl-isoxazol-4-yl)-4-(2-piperazin-1-yl-pyridin-4-yl)-benzenesulfonamide] | 0.20 µM |
| Cc1nn(C)c(C)c1N[S+](=O)([O-])c1c(Cl)cc(C#CCN2CCN(C)CC2)cc1Cl [DDD86469, 2,6-Dichloro-4-[3-(4-methyl-piperazin-1-yl)-prop-1-ynyl]-N-(1,3,5-trimethyl-1H-pyrazol-4-yl)-benzenesulfonamide] | 0.55 µM |
| Cc1nn(C)cc1N[S+](=O)([O-])c1ccc(-c2ccnc(N3CCNCC3)c2)cc1 [DDD86471, N-(1,3-Dimethyl-1H-pyrazol-4-yl)-4-(2-piperazin-1-yl-pyridin-4-yl)-benzenesulfonamide] | 0.009 µM |
| Cc1nn(C)c(C)c1N[S+](=O)([O-])c1ccc(NCCN2CCN(Cc3ccccc3)CC2)nc1 [DDD86472] | >1 µM |
